Results reported in publication PMC3234165 (Biochemistry, 2011).
Read-outs that look alike come from different tables or passages of the source.

How the values were obtained:
Sig-2R, sigma-2 receptor = target: T1, Sig-2R, sigma-2 receptor (Rattus norvegicus, UniProt Q5U3Y7); assay: NIMH PDSP secondary binding assay
T1 sequence (Q5U3Y7 1-176): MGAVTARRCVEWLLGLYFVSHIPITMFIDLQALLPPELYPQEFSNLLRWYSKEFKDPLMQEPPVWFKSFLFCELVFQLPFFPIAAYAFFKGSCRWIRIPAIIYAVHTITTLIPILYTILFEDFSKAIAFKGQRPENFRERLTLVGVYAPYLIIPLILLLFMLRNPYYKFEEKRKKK

A549 = assay: Multiplex cytotoxicity assay; format: cell-based; conditions: Homo sapiens, A549, read-out: IC50 A549
[1] = target: SERT (serotonin transporter) (Homo sapiens, UniProt P31645); assay: NIMH PDSP secondary binding assay
sigma-1 receptor = sigma-1 receptor (Cavia porcellus, UniProt Q60492); assay: Saturation binding of [3H]-; parameters: species or system guinea pig; conditions: GPLM; increasing concentrations of 2b
[2] = target: T2, 5HT1A (serotonin receptor subtype 1A) (Homo sapiens, UniProt P08908); assay: NIMH PDSP secondary binding assay; conditions: KI 5HT1A
T2 sequence (P08908 1-422): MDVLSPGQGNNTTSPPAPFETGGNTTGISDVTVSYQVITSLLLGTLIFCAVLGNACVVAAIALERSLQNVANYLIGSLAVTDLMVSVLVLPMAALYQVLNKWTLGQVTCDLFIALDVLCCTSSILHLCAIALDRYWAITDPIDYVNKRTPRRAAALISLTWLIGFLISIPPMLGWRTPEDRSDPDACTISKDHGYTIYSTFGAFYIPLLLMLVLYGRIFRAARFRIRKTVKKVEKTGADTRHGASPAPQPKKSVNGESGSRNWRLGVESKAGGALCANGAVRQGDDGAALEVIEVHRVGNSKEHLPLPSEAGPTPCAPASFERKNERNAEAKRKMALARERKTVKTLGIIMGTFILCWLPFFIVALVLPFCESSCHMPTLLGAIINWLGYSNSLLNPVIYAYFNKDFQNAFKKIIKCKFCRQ

[3] = target: H3 (histamine receptor type 3) (Homo sapiens, UniProt Q9Y5N1); assay: NIMH PDSP secondary binding assay
SF-268 = assay: Multiplex cytotoxicity assay; format: cell-based; conditions: Homo sapiens, SF-268, read-out: IC50 SF-268
MCF-10A = assay: Multiplex cytotoxicity assay; format: cell-based; conditions: Homo sapiens, read-out: IC50 MCF-10A
Sig-1R, sigma-1 receptor = Sig-1R, sigma-1 receptor (Rattus norvegicus, UniProt Q9R0C9); assay: NIMH PDSP secondary binding assay
[4] = target: 5HT7 (serotonin receptor subtype 7) (Homo sapiens, UniProt P34969); assay: NIMH PDSP secondary binding assay
[5] = target: β-2 (β-adrenergic receptor subtype 2) (Homo sapiens, UniProt P07550); assay: NIMH PDSP secondary binding assay
[6] = target: M3 (muscarinic acetylcholine receptor type 3) (Homo sapiens, UniProt P20309); assay: NIMH PDSP secondary binding assay
MDA-MB-231 = assay: Multiplex cytotoxicity assay; format: cell-based; conditions: Homo sapiens, MDA-MB-231, read-out: IC50 MDA-MB-231
[7] = target: 5HT2B (serotonin receptor subtype 2B) (Homo sapiens, UniProt P41595); assay: NIMH PDSP secondary binding assay
SK-OV-3 = assay: Multiplex cytotoxicity assay; format: cell-based; conditions: Homo sapiens, SK-OV-3, read-out: IC50 SK-OV-3
NCI-H460 = assay: Multiplex cytotoxicity assay; format: cell-based; conditions: Homo sapiens, NCI-H460, read-out: IC50 NCI-H460
HT-29 = assay: Multiplex cytotoxicity assay; format: cell-based; conditions: Homo sapiens, HT-29, read-out: IC50 HT-29
[8] = target: H2 (histamine receptor type 2) (Homo sapiens, UniProt P25021); assay: NIMH PDSP secondary binding assay
[9] = target: NET (norepinephrine transporter) (Homo sapiens, UniProt P23975); assay: NIMH PDSP secondary binding assay
MCF-7 = assay: Multiplex cytotoxicity assay; format: cell-based; conditions: Homo sapiens, MCF7, read-out: IC50 MCF-7
[10] = target: M5 (muscarinic acetylcholine receptor type 5) (Homo sapiens, UniProt P08912); assay: NIMH PDSP secondary binding assay
[11] = target: 5HT1B (serotonin receptor subtype 1B) (Homo sapiens, UniProt P28222); assay: NIMH PDSP secondary binding assay
[12] = target: T3, α-1A (α-adrenergic receptor subtype 1A) (Homo sapiens, UniProt P35348); assay: NIMH PDSP secondary binding assay
T3 sequence (P35348 1-466): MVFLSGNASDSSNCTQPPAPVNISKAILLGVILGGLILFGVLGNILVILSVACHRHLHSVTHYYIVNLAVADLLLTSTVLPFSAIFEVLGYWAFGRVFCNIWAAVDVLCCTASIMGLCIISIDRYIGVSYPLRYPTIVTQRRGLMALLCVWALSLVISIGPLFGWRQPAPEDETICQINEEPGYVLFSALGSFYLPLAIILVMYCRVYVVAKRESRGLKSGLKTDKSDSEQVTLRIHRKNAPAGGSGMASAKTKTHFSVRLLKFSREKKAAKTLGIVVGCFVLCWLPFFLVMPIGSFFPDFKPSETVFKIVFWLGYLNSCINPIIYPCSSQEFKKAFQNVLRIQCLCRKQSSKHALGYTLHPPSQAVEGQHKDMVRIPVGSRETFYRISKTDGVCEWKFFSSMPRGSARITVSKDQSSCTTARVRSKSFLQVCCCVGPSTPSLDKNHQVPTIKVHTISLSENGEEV

H1299 = assay: Multiplex cytotoxicity assay; format: cell-based; conditions: Homo sapiens, NCI-H1299, read-out: IC50 H1299
[13] = target: β-3 (β-adrenergic receptor subtype 3) (Homo sapiens, UniProt P13945); assay: NIMH PDSP secondary binding assay
HCT-15 = assay: Multiplex cytotoxicity assay; format: cell-based; conditions: Homo sapiens, HCT-15, read-out: IC50 HCT-15
caspases 3/7, 8, and 9 = assay: Caspase activation potential; format: cell-based; conditions: data not shown
[14] = target: T4, sigma-2 receptor (sigma-2 sites) (Rattus norvegicus, UniProt Q5U3Y7); assay: Competitive displacement of [3H]-DTG binding, rat liver membranes; conditions: for KI sigma-2 sites: rat liver membranes in the presence of 100 nM (+)-pentazocine, [3H]-DTG; for sigma-2/sigma-1: ratio from the KI value of sigma-1 and sigma-2 sites (membranes)
T4 sequence (Q5U3Y7 1-176): T1 sequence (Q5U3Y7 1-176)

[15] = target: M4 (muscarinic acetylcholine receptor type 4) (Homo sapiens, UniProt P08173); assay: NIMH PDSP secondary binding assay
Du145 = assay: Multiplex cytotoxicity assay; format: cell-based; conditions: Homo sapiens, DU-145, read-out: IC50 Du145
[16] = target: D1 (dopamine receptor type 1) (Homo sapiens, UniProt P21728); assay: NIMH PDSP secondary binding assay
Kv1.4 potassium channel = Kv1.4 potassium channel (Rattus norvegicus, UniProt P15385+Q9R0C9); assay: Whole cell patch clamp, HEK-293 cells co-expressing Kv1.4 and sigma-1 receptor; format: cell-based; conditions: for average inhibition of the Kv1.4 potassium channel: concentrations up to 300 μM, HEK-293 with Kv1.4 and sigma-1 receptor
[17] = target: pure guinea pig sigma-1 receptor (Cavia porcellus, UniProt Q60492); assay: Competitive displacement of [3H]-; format: binding
caspases 3/7 [18] = assay: Caspase activation by rimcazole in cancer cell lines; format: cell-based; conditions: any cancer cell lines tested, including MCF-7
caspases 3/7 [19] = conditions: MCF-7 and MDA MB 468 mammary carcinoma; ref Spruce et al. 2004; cited from earlier work
[20] = test system: tumors grown from the mouse mammary adenocarcinoma cell line 66; conditions: nude mice with tumors from mouse mammary adenocarcinoma cell line 66; cited from earlier work
[21] = read-out: KI pure sigma-1 receptor, Table 1, [3H]-(+)-pentazocine displacement

Sequence of pure guinea pig sigma-1 receptor (Q60492 whole entry): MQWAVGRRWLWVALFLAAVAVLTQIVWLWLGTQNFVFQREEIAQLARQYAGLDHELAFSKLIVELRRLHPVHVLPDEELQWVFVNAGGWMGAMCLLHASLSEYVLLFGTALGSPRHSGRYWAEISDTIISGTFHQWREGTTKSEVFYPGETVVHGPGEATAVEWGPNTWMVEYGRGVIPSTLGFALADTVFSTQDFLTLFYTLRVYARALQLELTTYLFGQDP
Sequence of Kv1.4 potassium channel (P15385 whole entry): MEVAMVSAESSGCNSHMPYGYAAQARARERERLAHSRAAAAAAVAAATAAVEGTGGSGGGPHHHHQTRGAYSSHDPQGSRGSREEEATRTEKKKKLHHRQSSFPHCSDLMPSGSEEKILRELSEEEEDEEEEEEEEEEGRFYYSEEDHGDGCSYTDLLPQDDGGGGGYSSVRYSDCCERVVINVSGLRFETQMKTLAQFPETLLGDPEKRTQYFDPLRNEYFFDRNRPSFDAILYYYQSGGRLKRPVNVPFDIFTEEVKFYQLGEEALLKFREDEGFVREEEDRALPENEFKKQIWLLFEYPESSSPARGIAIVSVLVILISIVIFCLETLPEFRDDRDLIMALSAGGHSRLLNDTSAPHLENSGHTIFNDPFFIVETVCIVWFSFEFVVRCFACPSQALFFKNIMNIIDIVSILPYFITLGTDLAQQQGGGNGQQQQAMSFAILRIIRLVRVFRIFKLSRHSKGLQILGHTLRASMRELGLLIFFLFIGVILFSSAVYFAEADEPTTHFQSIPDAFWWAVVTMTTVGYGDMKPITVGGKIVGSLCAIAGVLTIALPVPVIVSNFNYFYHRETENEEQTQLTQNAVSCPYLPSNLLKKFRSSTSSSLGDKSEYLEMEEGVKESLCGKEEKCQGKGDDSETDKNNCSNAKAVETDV
Sequence of Kv1.4 potassium channel (Q9R0C9 whole entry): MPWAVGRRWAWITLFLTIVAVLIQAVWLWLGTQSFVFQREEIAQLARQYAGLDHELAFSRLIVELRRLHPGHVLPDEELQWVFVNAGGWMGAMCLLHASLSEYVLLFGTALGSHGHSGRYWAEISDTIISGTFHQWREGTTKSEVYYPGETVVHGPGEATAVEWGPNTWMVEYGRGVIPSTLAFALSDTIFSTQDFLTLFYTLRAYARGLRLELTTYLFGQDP
Sequence of Sig-1R, sigma-1 receptor (Q9R0C9 whole entry): as above
Sequence of M5 (muscarinic acetylcholine receptor type 5) (P08912 whole entry): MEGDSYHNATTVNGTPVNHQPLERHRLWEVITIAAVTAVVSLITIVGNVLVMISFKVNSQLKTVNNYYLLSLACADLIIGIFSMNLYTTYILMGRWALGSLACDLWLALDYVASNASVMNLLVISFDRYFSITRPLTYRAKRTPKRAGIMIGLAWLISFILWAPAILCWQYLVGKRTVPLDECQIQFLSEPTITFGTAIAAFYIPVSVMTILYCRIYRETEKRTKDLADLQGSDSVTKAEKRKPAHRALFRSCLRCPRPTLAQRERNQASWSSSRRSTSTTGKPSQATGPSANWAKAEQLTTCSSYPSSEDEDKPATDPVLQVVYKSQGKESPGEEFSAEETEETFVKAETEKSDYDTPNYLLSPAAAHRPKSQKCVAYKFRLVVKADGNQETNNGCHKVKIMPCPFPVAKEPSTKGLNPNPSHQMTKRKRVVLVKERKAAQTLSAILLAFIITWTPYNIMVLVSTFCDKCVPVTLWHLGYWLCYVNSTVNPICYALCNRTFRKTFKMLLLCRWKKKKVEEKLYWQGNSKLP
Sequence of sigma-1 receptor (Q60492 whole entry): as the sequence (Q60492 whole entry) above
Sequence of NET (norepinephrine transporter) (P23975 whole entry, species assumed): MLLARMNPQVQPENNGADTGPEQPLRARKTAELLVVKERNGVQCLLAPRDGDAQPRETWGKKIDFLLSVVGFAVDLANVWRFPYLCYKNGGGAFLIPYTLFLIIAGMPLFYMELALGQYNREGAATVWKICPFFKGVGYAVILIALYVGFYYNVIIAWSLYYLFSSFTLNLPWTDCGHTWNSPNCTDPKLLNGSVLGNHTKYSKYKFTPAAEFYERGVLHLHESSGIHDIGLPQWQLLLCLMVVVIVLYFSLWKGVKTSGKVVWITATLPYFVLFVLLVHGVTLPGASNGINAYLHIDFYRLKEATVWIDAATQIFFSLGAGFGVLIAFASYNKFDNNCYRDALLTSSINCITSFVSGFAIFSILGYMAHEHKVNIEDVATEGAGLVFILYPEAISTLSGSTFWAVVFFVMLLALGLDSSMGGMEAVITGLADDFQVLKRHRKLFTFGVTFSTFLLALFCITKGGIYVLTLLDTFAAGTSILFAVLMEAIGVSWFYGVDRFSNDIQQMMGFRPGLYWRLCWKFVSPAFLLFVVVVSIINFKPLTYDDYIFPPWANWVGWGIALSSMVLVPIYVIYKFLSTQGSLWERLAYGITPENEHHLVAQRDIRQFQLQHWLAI
Sequence of M4 (muscarinic acetylcholine receptor type 4) (P08173 whole entry): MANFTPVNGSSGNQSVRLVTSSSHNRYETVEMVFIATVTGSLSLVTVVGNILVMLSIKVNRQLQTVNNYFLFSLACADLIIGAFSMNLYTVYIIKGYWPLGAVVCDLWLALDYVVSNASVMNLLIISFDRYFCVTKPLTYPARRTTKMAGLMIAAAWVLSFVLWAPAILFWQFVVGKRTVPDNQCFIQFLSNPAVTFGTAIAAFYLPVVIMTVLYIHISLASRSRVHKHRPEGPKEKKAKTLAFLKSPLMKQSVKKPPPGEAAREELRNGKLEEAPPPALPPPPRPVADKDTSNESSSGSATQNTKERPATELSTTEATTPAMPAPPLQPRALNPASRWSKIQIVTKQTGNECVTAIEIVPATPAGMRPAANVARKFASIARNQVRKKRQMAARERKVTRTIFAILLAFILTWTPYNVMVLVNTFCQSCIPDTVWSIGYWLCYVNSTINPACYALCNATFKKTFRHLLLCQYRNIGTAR
Sequence of β-3 (β-adrenergic receptor subtype 3) (P13945 whole entry): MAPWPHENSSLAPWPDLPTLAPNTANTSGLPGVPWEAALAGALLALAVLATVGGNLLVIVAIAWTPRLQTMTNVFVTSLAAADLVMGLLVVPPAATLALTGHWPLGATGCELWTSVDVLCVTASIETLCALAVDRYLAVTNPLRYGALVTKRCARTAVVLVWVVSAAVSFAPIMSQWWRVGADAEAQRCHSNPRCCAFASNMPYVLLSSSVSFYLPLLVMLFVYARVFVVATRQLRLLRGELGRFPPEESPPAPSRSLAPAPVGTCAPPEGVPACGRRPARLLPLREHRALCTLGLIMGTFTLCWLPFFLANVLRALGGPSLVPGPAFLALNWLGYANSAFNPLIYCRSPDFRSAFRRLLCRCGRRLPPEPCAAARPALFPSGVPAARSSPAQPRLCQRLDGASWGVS
Sequence of H2 (histamine receptor type 2) (P25021 whole entry): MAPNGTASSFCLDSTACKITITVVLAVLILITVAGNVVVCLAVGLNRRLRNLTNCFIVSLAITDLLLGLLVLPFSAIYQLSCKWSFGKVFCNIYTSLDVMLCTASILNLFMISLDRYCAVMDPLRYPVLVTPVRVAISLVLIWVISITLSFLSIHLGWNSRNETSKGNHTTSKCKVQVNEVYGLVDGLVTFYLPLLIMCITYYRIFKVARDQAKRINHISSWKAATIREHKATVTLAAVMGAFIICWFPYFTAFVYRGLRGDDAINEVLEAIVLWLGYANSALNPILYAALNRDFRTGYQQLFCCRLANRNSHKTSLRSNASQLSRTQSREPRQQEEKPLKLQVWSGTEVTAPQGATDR
Sequence of SERT (serotonin transporter) (P31645 whole entry, species assumed): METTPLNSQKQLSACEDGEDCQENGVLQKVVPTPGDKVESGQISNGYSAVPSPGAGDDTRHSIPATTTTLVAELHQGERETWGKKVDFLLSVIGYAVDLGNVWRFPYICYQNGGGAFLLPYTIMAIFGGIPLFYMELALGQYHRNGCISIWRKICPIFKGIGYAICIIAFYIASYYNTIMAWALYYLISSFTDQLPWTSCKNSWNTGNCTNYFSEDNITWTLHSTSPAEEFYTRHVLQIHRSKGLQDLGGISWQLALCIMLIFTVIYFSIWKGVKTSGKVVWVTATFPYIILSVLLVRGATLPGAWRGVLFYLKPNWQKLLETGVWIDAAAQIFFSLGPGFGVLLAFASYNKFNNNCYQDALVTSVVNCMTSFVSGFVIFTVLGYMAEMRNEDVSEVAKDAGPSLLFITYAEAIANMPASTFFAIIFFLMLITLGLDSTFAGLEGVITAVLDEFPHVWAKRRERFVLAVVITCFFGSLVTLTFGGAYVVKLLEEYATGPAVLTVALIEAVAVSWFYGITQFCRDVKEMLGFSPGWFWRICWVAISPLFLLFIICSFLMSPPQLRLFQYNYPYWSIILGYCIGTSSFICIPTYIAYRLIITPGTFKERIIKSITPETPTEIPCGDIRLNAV
Sequence of M3 (muscarinic acetylcholine receptor type 3) (P20309 whole entry): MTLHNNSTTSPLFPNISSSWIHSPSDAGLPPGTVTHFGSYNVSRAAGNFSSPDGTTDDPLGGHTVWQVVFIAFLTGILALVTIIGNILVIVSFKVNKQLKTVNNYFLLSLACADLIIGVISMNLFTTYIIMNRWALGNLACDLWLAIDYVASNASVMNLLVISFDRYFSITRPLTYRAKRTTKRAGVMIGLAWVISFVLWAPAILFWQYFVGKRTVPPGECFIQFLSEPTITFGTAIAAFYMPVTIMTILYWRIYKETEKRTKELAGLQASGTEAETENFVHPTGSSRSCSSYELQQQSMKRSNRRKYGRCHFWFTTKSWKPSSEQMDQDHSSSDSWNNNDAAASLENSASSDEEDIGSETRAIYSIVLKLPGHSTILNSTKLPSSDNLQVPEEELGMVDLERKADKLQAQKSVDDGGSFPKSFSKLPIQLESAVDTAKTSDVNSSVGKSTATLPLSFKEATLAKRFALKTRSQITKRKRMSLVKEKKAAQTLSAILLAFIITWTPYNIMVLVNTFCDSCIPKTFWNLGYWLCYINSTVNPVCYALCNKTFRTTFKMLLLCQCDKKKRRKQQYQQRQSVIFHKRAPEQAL

Compound: CCCCCCCNCCCc1ccc([N+](=O)[O-])cc1 [2b, N-(3-(4-Nitrophenyl)propyl)heptan-1-amine]
- Ki (Sig-2R, sigma-2 receptor): 0.014 µM
- IC50 (A549): 55 ± 5 µM
- Ki [1]: 1.1 µM
- Bmax of [3H]-(+)-pentazocine in the presence of 2b (sigma-1 receptor): unchanged
- Ki ([2]; NIMH PDSP, [3H]8-OH-DPAT/0.5 nM): 0.05 µM
- Ki ([2]; text statement on secondary screen): < 0.05 µM
- Ki [3]: > 10 µM
- IC50 (SF-268): 40 ± 3 µM
- IC50 (MCF-10A): 53 ± 6 µM
- Ki (Sig-1R, sigma-1 receptor): 0.02 µM
- Ki [4]: 0.9 µM
- Ki [5]: > 10 µM
- Ki [6]: 1.1 µM
- IC50 (MDA-MB-231): 30 ± 2 µM
- Ki [7]: 1.1 µM
- IC50 (SK-OV-3): 73 ± 8 µM
- IC50 (NCI-H460): 38 ± 4 µM
- IC50 (HT-29): 30 ± 1 µM
- Ki [8]: 0.6 µM
- Ki [9]: 4 µM
- IC50 (MCF-7): 21 ± 1 µM
- Ki [10]: 0.3 µM
- Ki [11]: > 10 µM
- Ki [12]: > 10 µM
- IC50 (H1299): 28 ± 1 µM
- Ki [13]: > 10 µM
- IC50 (HCT-15): > 100 µM
- activation of caspases 3/7, 8, and 9 (caspases 3/7, 8, and 9): did not activate
- KI sigma-2 sites [14]: nanomolar affinities
- sigma-2/sigma-1 [14]: 1
- Ki [15]: 1.4 µM
- IC50 (Du145): 29 ± 1 µM
- Ki [16]: > 10 µM

Compound: CCCCCCCN [Heptylamine, reference compound]
- average inhibition of the Kv1.4 potassium channel (Kv1.4 potassium channel): 15%

Compound: CCCCCCCCN [Octylamine]
- Ki [17, 21]: 6 ± 3 µM

Compound: CCCCN [Butylamine, reference compound]
- average inhibition of the Kv1.4 potassium channel (Kv1.4 potassium channel): 21%
- Ki [17, 21]: 477 ± 67 µM

Compound: CCCCCCCCCCCCCCCCCCNCCCc1ccccc1 [4a, N-(3-Phenylpropyl)octadecan-1-amine]
- KI sigma-2 sites [14]: micromolar affinities
- sigma-2/sigma-1 [14]: 0.6

Compound: CCCCCN [Amylamine]
- Ki [17, 21]: 167 ± 35 µM

Compound: C[C@@H]1CN(CCCn2c3ccccc3c3ccccc32)C[C@H](C)N1 [rimcazole]
- activation of caspases 3/7 (caspases 3/7 [18]): not found to activate
- activation of caspases 3/7 (caspases 3/7 [19]): activate

Compound: O=C(Cc1cccc(Br)c1)NC1CCN(Cc2ccc([18F])cc2)CC1 [[^18F]FBPBPA, N-[1-(4′-[^18F]fluorobenzyl)piperidin-4-yl]-3-bromophenylacetamide]
- receptor-specific uptake of the tracer in the brain [20]: ~ 60%
- receptor-specific uptake of the tracer in the tumor [20]: ~ 25%

Compound: CCCCCCCCCCCCCCCCCCNCCCc1ccc([N+](=O)[O-])cc1 [4b, N-(3-(4-Nitrophenyl)propyl)octadecan-1-amine]
- Ki [17]: 0.042 ± 0.007 µM
- KI sigma-2 sites [14]: micromolar affinities
- sigma-2/sigma-1 [14]: 0.3

Compound: CCCCNCCCc1ccccc1 [1a, N-(3-Phenylpropyl)butan-1-amine]
- IC50 (Kv1.4 potassium channel): 50 µM
- Ki [17]: 0.2 ± 0.02 µM
- KI sigma-2 sites [14]: nanomolar affinities
- sigma-2/sigma-1 [14]: 2

Compound: CCCCNCCCc1ccc([N+](=O)[O-])cc1 [1b, N-(3-(4-Nitrophenyl)propyl)butan-1-amine]
- KI sigma-2 sites [14]: nanomolar affinities
- sigma-2/sigma-1 [14]: 7

Compound: CCCCCCCCCCCCCCN [Tretradecylamine]
- Ki [17, 21]: 1 ± 0.03 µM
